Experimental data from US6376488B1, “Benzoxazine α-1 adrenergic compounds” (Abbott Laboratories, priority 2000, dated 2002).
Where a name gives a salt, the structure may show the parent alone.

Experiments:
[1] = target: T1, α1a (bovine) adrenoreceptor (Bos taurus, UniProt P18130); assay: [3H]-prazosin radioligand binding, cloned α1a (bovine) adrenoreceptor in LTK cells; details: cloned receptor in LTK cell membranes, [3H]prazosin 0.2 nM
T1 sequence (P18130 1-466): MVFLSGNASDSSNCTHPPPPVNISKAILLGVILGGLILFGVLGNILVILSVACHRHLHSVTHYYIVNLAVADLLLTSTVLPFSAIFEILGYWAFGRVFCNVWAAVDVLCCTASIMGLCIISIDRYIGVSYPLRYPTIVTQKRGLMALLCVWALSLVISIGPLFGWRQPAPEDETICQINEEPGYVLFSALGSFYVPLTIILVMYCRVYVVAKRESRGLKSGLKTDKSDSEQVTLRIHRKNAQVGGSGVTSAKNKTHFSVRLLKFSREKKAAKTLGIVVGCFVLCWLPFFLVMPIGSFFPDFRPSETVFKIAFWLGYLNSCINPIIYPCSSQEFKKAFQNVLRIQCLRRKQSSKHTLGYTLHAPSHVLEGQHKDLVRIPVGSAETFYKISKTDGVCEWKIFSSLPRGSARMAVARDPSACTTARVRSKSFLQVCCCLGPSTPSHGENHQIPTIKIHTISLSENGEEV
Method: (§1) Representative compounds of the invention were evaluated for α adrenoreceptor binding affinity in vitro using [^3H]-prazosin as the radioligand and following four cloned α1, adrenoreceptors expressed in LTK cells: α1a (rat), α1a (bovine), α1b : (hampster), and α1d (rat).
(§2) The cDNA clones encoding the α1, adrenoreceptors were obtained from TULCO (Triangle Universities Licensing Consortium, Research Triangle Park, N.C.) and inserted into the eukaryotic expression vector SnaB30. In this vector, expression of the adrenoreceptor gene is under the transcriptional control of an SV40 early promoter. Positive drug selection is provided by a neomycin-resistance gene. Mouse fibroblast cells (LTK) were transfected with the α1 expression plasmids and grown in Dulbecco's modified Eagle's medium (DMEM) containing 10% fetal calf serum and 30 μM G418. Stable G418-resistant parental lines were generated with successful expression of adrenoreceptor protein monitored using radioligand binding techniques. Stable single cell clones derived from the parental lines were screened in adrenoreceptor binding assays to identify clones having high adrenoreceptor density. Roller bottle cultures of the cloned lines were used to provide cell membranes for subsequent adrenoreceptor binding characterization studies. A cell line containing the SnaB30 vector expressing the human erythropoietin gene served as a negative control.
(§3) For adrenoreceptor binding assays, large scale membrane preparations were utilized in which 6 million cells were seeded into small (450 cm^2) Coming tissue culture roller bottles. DMEM (200 mL) containing 10% fetal calf serum and 300 μM G418 were added to each roller bottle. A 95% air/5% CO2 gas mixture (sterile) was injected into each roller bottle prior to sealing, and the bottles were then incubated at 37° C. on a roller rack for 5 days. Cells were refed with fresh medium after 3 days in culture.
(§4) On the fifth day of culture, growth medium was removed from cells grown in roller bottles, and the cells were washed twice with PBS (Sigma, 120 mM NaCl, 2.7 mM KCl, 10 mM Na2HPO4-NaH2PO4, pH=7.4). Cells were detached from the roller bottles by incubating for 15 minutes at 37° C. in a Tris-EDTA solution (10 mM Tris, 100 mM NaCl, 1 mM EDTA, pH=7.4). The cell suspension from each roller bottle was decanted into tared centrifuge tubes and kept on ice. An aliquot of each cell suspension was generally taken for cell counting. Cells were centrifuged at 3000×G for 5 minutes at 2-4° C., washed with PBS and recentrifuged. The supernatant was decanted, and the pellet was weighed to determine the wet weight of cells. Cells were washed a final time in 40 vol 5 mM Tris-HCl, 5 mM EDTA, pH=7.7 and centrifuged at 40,000×G for 10 minutes (“vol” indicates volume/weight, e.g., a “vol” of 40 would indicate that the one gram of cells were washed with 40 mls of buffer). Cells were homogenized in of 50 mM Tris-HCl, 5 mM EDTA (pH=7.4) (10 mL) and diluted to 40 mL/tube. Homogenates were centrifuged at 40,000×G for 10 minutes. The supernatant was decanted and the pellets rehomogenized in 50 mM Tris-HCl (pH=7.4) and centrifuged as before. The supernatant was decanted and the homogenate was resuspended in 6.25 volumes (per gram wet weight) of 50 mM Tris-HCl and aliquots of the pooled homogenates frozen in liquid N2 and,stored at −70° C. until the time of assay.
(§5) Receptor binding assays for α1 adrenoreceptors were performed essentially as described by Greengrass and Bremner (Eur. J. Pharmacol. 55: 323-326 (1979)). […] Following equilibration, bound radioligand was separated from free on GF/B filters (presoaked in 0.5% polyethyleneimine) using ither a Brandel or Packard cell harvester. Radioactivity was determined by standard liquid scintillation techniques. Data were analyzed as previously described (Hancock, A. A., Kyncl, J. J., Martin, Y. C. and DeBemardis, J. F., J. Receptor Res. 8: 23-46 (1988)). The in Table 1.

α1d (rat) adrenoreceptor = target: T2, α1d (rat) adrenoreceptor (Rattus norvegicus, UniProt P23944); assay: [3H]-prazosin radioligand binding, cloned α1d (rat) adrenoreceptor in LTK cells; details: cloned receptor in LTK cell membranes, [3H]prazosin 0.2 nM
T2 sequence (P23944 1-561): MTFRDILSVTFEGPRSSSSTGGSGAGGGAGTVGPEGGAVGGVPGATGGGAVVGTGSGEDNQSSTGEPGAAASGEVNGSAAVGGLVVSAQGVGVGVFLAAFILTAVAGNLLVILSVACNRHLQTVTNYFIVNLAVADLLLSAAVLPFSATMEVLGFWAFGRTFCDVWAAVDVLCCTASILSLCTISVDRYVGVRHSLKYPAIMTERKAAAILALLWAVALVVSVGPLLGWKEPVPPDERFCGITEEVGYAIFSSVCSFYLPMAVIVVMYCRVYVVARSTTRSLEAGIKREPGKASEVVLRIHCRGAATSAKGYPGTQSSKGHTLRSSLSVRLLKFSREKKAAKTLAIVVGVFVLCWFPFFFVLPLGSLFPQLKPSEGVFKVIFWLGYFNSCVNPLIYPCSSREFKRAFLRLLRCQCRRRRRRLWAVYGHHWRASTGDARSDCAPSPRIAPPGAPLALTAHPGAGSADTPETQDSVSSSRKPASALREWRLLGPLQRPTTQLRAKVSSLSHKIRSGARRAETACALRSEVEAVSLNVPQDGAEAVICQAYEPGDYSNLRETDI
Method: as §1, §2, §3, §4, §5

| Compound | Ki [1] [nM] | Ki (α1d (rat) adrenoreceptor) [nM] |
| --- | --- | --- |
| Cl.Cl.O=c1[nH]c2c(sc3cccnc32)c(=O)n1CCCN1CCN2c3ccccc3OCC2C1 (single isomer, unassigned; (+)) [Example 1, (+) 3-[3-(1,2,4a,5-tetrahydropyrazino[2,1-c][1,4]benzoxazin-3(4H)-yl)propyl]pyrido[2′,3′:4,5]thieno[3,2-d]pyrimidine-2,4(1H,3H)-dione dihydrochloride] | 1.18 | 5.89 |
| Cl.Cl.O=c1[nH]c2c(sc3cccnc32)c(=O)n1CCCCN1CCN2c3ccccc3OCC2C1 (single isomer, unassigned; (+)) [Example 3, (+) 3-[4-(1,2,4a,5-tetrahydropyrazino[2,1-c][1,4]benzoxazin-3(4H)-yl)butyl]pyrido[2′, 3′:4,5]thieno[3,2-d]pyrimidine-2,4(1H,3H)-dione dihydrochloride] | 2.09 | 5 |
| Cl.Cl.O=c1[nH]c2c(sc3ncccc32)c(=O)n1CCCCN1CCN2c3ccccc3OCC2C1 (single isomer, unassigned; (+)) [Example 5, (+) 3-[4-(1,2,4a,5-tetrahydropyrazino[2,1-c][1,4]benzoxazin-3(4H)-yl)butyl]pyrido[3′, 2′:4,5]thieno[3,2-d]pyrimidine-2,4(1H,3H)-dione dihydrochloride] | 2.72 | 4.26 |
| COc1cccc2c1N1CCN(CCn3c(=O)[nH]c4c(sc5ncc(Cl)nc54)c3=O)CC1CO2.Cl.Cl (single isomer, unassigned; (+)) [Example 8, (+) 3-[2-(10-methoxy-1,2,4a,5-tetrahydropyrazino[2,1-c][1,4]benzoxazin-3(4H)-yl)ethyl]-8-chloropyrazino[2′,3′:4,5]thieno[3,2-d]pyrimidine-2,4(1H,3H)-dione dihydrochloride] | 0.463 | 5.08 |
| COc1cccc2c1N1CCN(CCCn3c(=O)[nH]c4c(sc5cccnc54)c3=O)CC1CO2.Cl.Cl.Cl (single isomer, unassigned; (+)) [Example 17, (+) 3-[3-(10-methoxy-1,2,4a,5-tetrahydropyrazino[2,1-c][1,4]benzoxazin-3(4H)-yl)propyl]pyrido[2′,3′:4,5]thieno[3,2-d]pyrimidine-2,4(1H,3H)-dione trihydrochloride] | 2.5 | 20.5 |
| O=c1[nH]c2c(sc3cccnc32)c(=O)n1CCCN1CCN2c3ccccc3OCC2C1 (single isomer, unassigned; (-)) [Example 2, (−) 3-[3-(1,2,4a,5-tetrahydropyrazino[2,1-c][1,4]benzoxazin-3(4H)-yl)propyl]pyrido[2′,3′:4,5]thieno[3,2-d]pyrimidine-2,4(1H,3H)-dione dihydrochloride] | 13.8 | 69.8 |
| O=c1[nH]c2c(sc3cccnc32)c(=O)n1CCCCN1CCN2c3ccccc3OCC2C1 (single isomer, unassigned; (-)) [Example 4, (−) 3-[4-(1.2,4a,5-tetrahydropyrazino[2,1-c][1,4benzoxazin-3(4H)-yl)butyl]pyrido[2′,3′:4,5]thieno[3,2-d]pyrimidine-2,4(1H,3H)-dione dihydrochloride] | 3.6 | 19.5 |
| Cl.Cl.O=c1[nH]c2c(sc3ncccc32)c(=O)n1CCCCN1CCN2c3ccccc3OCC2C1 (single isomer, unassigned; (-)) [Example 6, (−) 3-[4-(1,2,4a,5-tetrahydropyrazino[2,1-c][1,4]benzoxazin-3(4H)-yl)butyl]pyrido[3′, 2′:4,5]thieno[3,2-d]pyrimidine-2,4(1H,3H)-dione dihydrochloride] | 5.51 | 16.9 |

These reach a lower Ki [1]. Values come first.

| Ki [1] [nM] | Ki (α1d (rat) adrenoreceptor) [nM] | Compound |
| --- | --- | --- |
| 0.243 | 2.16 | COc1cccc2c1N1CCN(CCCCn3c(=O)[nH]c4c(sc5cccnc54)c3=O)CC1CO2 (single isomer, unassigned; (+)) [Example 14, (+) 3-[4-(10-methoxy-1,2,4a,5-tetrahydropyrazino[2,1-c][1,4]benzoxazin-3(4H)-yl)butyl]pyido [2′,3′:4,5]thieno[3,2-d]pyrimidine-2,4(1H,3H)-dione trihydrochloride] |
| 0.289 | 1.3 | COc1cccc2c1N1CCN(CCCCn3c(=O)[nH]c4c(sc5ncccc54)c3=O)CC1CO2.Cl.Cl.Cl (single isomer, unassigned; (+)) [Example 15, (+) 3-[4-(10-methoxy-1,2,4a,5-tetrahydropyrazino[2,1-c][1,4]benzoxazin-3(4H)-yl)butyl]pyrido[3′,2′:4,5]thieno[3,2-d]pyrimidine-2,4(1H,3H)-dione trihydrochloride] |
| 0.334 | 2.01 | COc1cccc2c1N1CCN(CCn3c(=O)[nH]c4c(sc5cccnc54)c3=O)CC1CO2.Cl.Cl.Cl (single isomer, unassigned; (+)) [Example 16, (+) 3-[2-(10-methoxy-1,2,4a,5-tetrahydropyrazino[2,1-c][1,4]benzoxazin-3(4H)-yl)ethyl]pyrido[2′,3′:4,5]thieno[3,2-d]pyrimidine-2,4(1H,3H)-dione trihydrochloride] |
| 0.251 | 1.13 | COc1cccc2c1N1CCN(CCn3c(=O)[nH]c4c(sc5cccnc54)c3=O)CC1CO2.Cl.Cl (single isomer, unassigned; (-)) [Example 7, (−) 3-[2-(10methoxy-1,2,4a,5-tetrahydropyrazino[2,1-c][1,4]benzoxazin-3(4H)-yl)ethyl]pyrido[2′,3′:4,5]thieno[3,2-d]pyrimidine-2,4(1H,3H)-dione dihydrochloride] |
| 0.249 | 1.28 | COc1cccc2c1N1CCN(CCCn3c(=O)[nH]c4c(sc5cccnc54)c3=O)CC1CO2.Cl.Cl.Cl (single isomer, unassigned; (-)) [Example 9, (−) 3-[3-(10-methoxy-1,2,4a,5-tetrahydropyrazino[2,1-c][1,4]benzoxazin-3(4H)-yl)propyl]pyrido[2′,3′:4,5]thieno[3,2-d]pyrimidine-2,4(1H, 3H)-dione trihydrochloride] |
